Measured values from the supplement of paper PMC11451515.

Legend:
Settings in all cases: 48 h
[1] = test system: NOMO1; assay: AUC of viability dose-response curve (% viability x log10 dose units); higher = less sensitive
How it was run: (§1)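 Leukemia cells adapted to each medium were seeded in 1536-well plates (500 or 1000 cells/well). They were dosed with library compounds in DMSO at 11 threefold doses, 47 μM to 0.79 nM, for 48 h at 37°C. CellTiter-Glo One luminescence was normalised per plate to DMSO and cell-free wells. Area under the curve was integrated by trapezoidal rule over log10 doses on a four-parameter log-logistic fit; curves exceeding full viability were scaled and curves failing quality control removed.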

[2] = test system: P12-Ichikawa; assay: as above
How it was run: as §1

[3] = test system: SEM cells; assay: as above
How it was run: as §1

[4] = test system: NOMO1; assay: cell viability relative to DMSO control; higher = less cytotoxic
How it was run: (§2)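 Viability is expressed as a percentage of DMSO wells within each plate, and cell-free wells serve as background. Seeding densities in the 1536-well plates (5 μl) were 500 cells/well for NOMO1 or SEM leukemia cells and 1000 cells/well for P12-Ichikawa. Each line was adapted for at least four passages in each medium. Library compounds in DMSO were pin-dosed at 47 μM to 0.79 nM (11 points, threefold), and CellTiter-Glo One luminescence was read after 48 h at 37°C.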

[5] = test system: P12-Ichikawa; assay: as above
How it was run: as §2

[6] = test system: SEM cells; assay: as above
How it was run: as §2

CC1(CN2CCC(n3c(=O)[nH]c4ccccc43)CC2)OCc2ccccc2-n2cccc21 (stereo unspecified)
AUC of viability dose-response curve
Settings | [1] | [2] | [3]
HPLM + 10% dialyzed FBS | 397 | 470 | 455
RPMI 5 mM glucose + 10% FBS | 452 | 469 | 449
RPMI 5 mM glucose + 10% dialyzed FBS | 438 | 458 | 470

cell viability [%]
Settings | [4] | [5] | [6]
HPLM + 10% dialyzed FBS, 0.000781 µM | 128 | 99.7 | 102
HPLM + 10% dialyzed FBS, 0.00234 µM | 108 | 97.6 | 109
HPLM + 10% dialyzed FBS, 0.00702 µM | 102 | 105 | 111
HPLM + 10% dialyzed FBS, 0.0211 µM | 105 | 98.7 | 100
HPLM + 10% dialyzed FBS, 0.0632 µM | 96.8 | 102 | 103
HPLM + 10% dialyzed FBS, 0.19 µM | 105 | 104 | 100
HPLM + 10% dialyzed FBS, 0.569 µM | 104 | 94.4 | 107
HPLM + 10% dialyzed FBS, 1.71 µM | 108 | 99.9 | 105
HPLM + 10% dialyzed FBS, 5.12 µM | 102 | 99 | 106
HPLM + 10% dialyzed FBS, 15.4 µM | 59.3 | 99.6 | 68.1
HPLM + 10% dialyzed FBS, 46.1 µM | 75.6 | 92.8 | 76.9
RPMI 5 mM glucose + 10% FBS, 0.000781 µM | 86.7 | 96 | 88.6
RPMI 5 mM glucose + 10% FBS, 0.00234 µM | 103 | 99.9 | 90.5
RPMI 5 mM glucose + 10% FBS, 0.00702 µM | 95.4 | 93.1 | 89
RPMI 5 mM glucose + 10% FBS, 0.0211 µM | 91.4 | 94.8 | 111
RPMI 5 mM glucose + 10% FBS, 0.0632 µM | 104 | 98.3 | 106
RPMI 5 mM glucose + 10% FBS, 0.19 µM | 107 | 98.5 | 95
RPMI 5 mM glucose + 10% FBS, 0.569 µM | 91.3 | 106 | 103
RPMI 5 mM glucose + 10% FBS, 1.71 µM | 96 | 109 | 100
RPMI 5 mM glucose + 10% FBS, 5.12 µM | 92.5 | 102 | 94.8
RPMI 5 mM glucose + 10% FBS, 15.4 µM | 87.8 | 96.8 | 79.3
RPMI 5 mM glucose + 10% FBS, 46.1 µM | 84 | 87.9 | 66.8
RPMI 5 mM glucose + 10% dialyzed FBS, 0.000781 µM | 105 | 94 | 106
RPMI 5 mM glucose + 10% dialyzed FBS, 0.00234 µM | 111 | 92.5 | 81.4
RPMI 5 mM glucose + 10% dialyzed FBS, 0.00702 µM | 103 | 96.4 | 97.6
RPMI 5 mM glucose + 10% dialyzed FBS, 0.0211 µM | 93.2 | 97.2 | 105
RPMI 5 mM glucose + 10% dialyzed FBS, 0.0632 µM | 96.7 | 97.7 | 113
RPMI 5 mM glucose + 10% dialyzed FBS, 0.19 µM | 98.2 | 99.2 | 94
RPMI 5 mM glucose + 10% dialyzed FBS, 0.569 µM | 95.9 | 94 | 121
RPMI 5 mM glucose + 10% dialyzed FBS, 1.71 µM | 92.4 | 93.8 | 99.2
RPMI 5 mM glucose + 10% dialyzed FBS, 5.12 µM | 90.9 | 98.7 | 105
RPMI 5 mM glucose + 10% dialyzed FBS, 15.4 µM | 79.5 | 94.3 | 79.6
RPMI 5 mM glucose + 10% dialyzed FBS, 46.1 µM | 68.5 | 98.5 | 96.9

N\C1=N\C2=C(N=C[N]2COCCO)C(=O)N1
AUC of viability dose-response curve
Settings | [1] | [2] | [3]
HPLM + 10% dialyzed FBS | 464 | 472 | 451
RPMI 5 mM glucose + 10% FBS | 461 | 465 | 460
RPMI 5 mM glucose + 10% dialyzed FBS | 467 | 473 | 431

cell viability [%]
Settings | [4] | [5] | [6]
HPLM + 10% dialyzed FBS, 0.000781 µM | 93.1 | 98.2 | 93.7
HPLM + 10% dialyzed FBS, 0.00234 µM | 106 | 109 | 101
HPLM + 10% dialyzed FBS, 0.00702 µM | 123 | 106 | 97.2
HPLM + 10% dialyzed FBS, 0.0211 µM | 112 | 107 | 103
HPLM + 10% dialyzed FBS, 0.0632 µM | 103 | 111 | 100
HPLM + 10% dialyzed FBS, 0.19 µM | 119 | 112 | 99.7
HPLM + 10% dialyzed FBS, 0.569 µM | 104 | 111 | 111
HPLM + 10% dialyzed FBS, 1.71 µM | 125 | 112 | 104
HPLM + 10% dialyzed FBS, 5.12 µM | 98.3 | 109 | 89.5
HPLM + 10% dialyzed FBS, 15.4 µM | 102 | 105 | 77.3
HPLM + 10% dialyzed FBS, 46.1 µM | 73.4 | 91.3 | 60.5
RPMI 5 mM glucose + 10% FBS, 0.000781 µM | 106 | 93.7 | 87
RPMI 5 mM glucose + 10% FBS, 0.00234 µM | 96.8 | 112 | 107
RPMI 5 mM glucose + 10% FBS, 0.00702 µM | 109 | 106 | 106
RPMI 5 mM glucose + 10% FBS, 0.0211 µM | 109 | 115 | 112
RPMI 5 mM glucose + 10% FBS, 0.0632 µM | 103 | 110 | 101
RPMI 5 mM glucose + 10% FBS, 0.19 µM | 95.4 | 99.4 | 104
RPMI 5 mM glucose + 10% FBS, 0.569 µM | 98.1 | 110 | 115
RPMI 5 mM glucose + 10% FBS, 1.71 µM | 103 | 106 | 117
RPMI 5 mM glucose + 10% FBS, 5.12 µM | 103 | 106 | 106
RPMI 5 mM glucose + 10% FBS, 15.4 µM | 97.4 | 92.3 | 93.4
RPMI 5 mM glucose + 10% FBS, 46.1 µM | 96.9 | 84.6 | 56.5
RPMI 5 mM glucose + 10% dialyzed FBS, 0.000781 µM | 112 | 97.2 | 83
RPMI 5 mM glucose + 10% dialyzed FBS, 0.00234 µM | 101 | 97.8 | 93.9
RPMI 5 mM glucose + 10% dialyzed FBS, 0.00702 µM | 103 | 111 | 95.9
RPMI 5 mM glucose + 10% dialyzed FBS, 0.0211 µM | 97.8 | 98.2 | 94.3
RPMI 5 mM glucose + 10% dialyzed FBS, 0.0632 µM | 93.8 | 105 | 95.1
RPMI 5 mM glucose + 10% dialyzed FBS, 0.19 µM | 113 | 97.3 | 115
RPMI 5 mM glucose + 10% dialyzed FBS, 0.569 µM | 106 | 110 | 90.1
RPMI 5 mM glucose + 10% dialyzed FBS, 1.71 µM | 109 | 94.7 | 101
RPMI 5 mM glucose + 10% dialyzed FBS, 5.12 µM | 107 | 98.9 | 88.2
RPMI 5 mM glucose + 10% dialyzed FBS, 15.4 µM | 100 | 102 | 73.3
RPMI 5 mM glucose + 10% dialyzed FBS, 46.1 µM | 71.5 | 85.1 | 44.8
